Experimental data reported in US20030166004A1, “Endothelial-cell binding peptides for diagnosis and therapy” (priority 2001, published 2003).
Read-outs that look alike come from different tables or passages of the source. Ends that are not written are not given here. * marks the point of attachment. Biotin = O=C1N[C@H]2[C@H](CS[C@H]2CCCCC(=O)*)N1

Legend:
[1] = tested on: aortic smooth muscle cells (AoSMC)
From the text: (§1) We developed a cell-based saturation ligand binding assay to measure the specific binding of the isolated EC binding peptides to human microvascular endothelial cells (HMVEC) and aortic smooth muscle cells (AoSMC). This assay allows the determination of the relative binding affinities of the isolated EC binding peptides. The assay is based on the highly sensitive fluorescence enhancement technique DELFIA® and coated microtitration plates. In this assay the synthetic peptides labeled with biotin at their amino terminus are incubated with fixed target cells in microtiter plate format. After incubation, the excess, unbound peptides are removed and europium labeled streptavidin added to the plates. After the removal of excess streptavidin, the europium is released and its fluorescence is measured.
(§2) Saturation ligand binding experiments measure specific ligand binding at equilibrium at various concentrations of the ligand. Binding curves are analyzed to determine binding site or receptor number and affinity. This curve is known as a rectangular hyperbola, binding isotherm, or saturation binding curve. This curve is determined by the following equation: […]
(§3) Y is zero initially, and increases to a maximum plateau value, Bmax. This equation describes the equilibrium binding of a ligand to a receptor as a function of increasing ligand concentration. X is the concentration of the ligand, and Y is the specific binding. Kd is the equilibrium dissociation constant, expressed in the same units as the X-axis (concentration). When the drug concentration equals Kd, half the binding sites are occupied at equilibrium.
(§4) Streptavidin-Eu^3+ reagent (cat # 1244-105), reagent diluent (cat # 1244-111), and Enhancement Solution (cat # 1244-105) were purchased from Perkin Elmer-Wallac (Turku, Finland), and the plates were read on Wallac Victor counter. The binding constants were calculated using the method of nonlinear regression analysis with the Prizm software (GraphPad Software, Inc.).
(§5) The HMVEC (human microvascular endothelial cell) and aortic smooth muscle cells (AoSMC) cells were purchased from Clonetics (San Diego, Calif.) and maintained according to the specifications of the supplier. In these experiments the cultures were used from passages 5 and 6 only.
(§6) The cultured subconfluent cells were trypsinized and resuspended in the culture media according to Clonetics instructions. The diluted suspension was dispensed into a reagent reservoir with magnetic stirring bar. 50 μl of the cell suspension was dispensed into each well of the 96-well plate with the Multidrop while stirring the suspension. The seeding density was 5*10^3 cells/well. The plates are incubated at 37° C. in the atmosphere containing 5% CO2 for 48 hours.
(§7) The cells were then washed three times with TBS with 0.01%Tween20 (wash buffer) and fixed with 2% formalin solution for fifteen minutes at 20° C. The cells were subsequently washed three times with wash buffer. The nonspecific sites on the plates were blocked by 300 μl of Pierce Casein Blocker per well for two hours at 20° C.
(§8) The saturation binding assay was performed by adding 50μl of the biotinylated peptide per well at increasing concentrations. The concentration was ranging from 1 nM to 10 μM. All measurements were performed in triplicates. Peptide dilutions were prepared from 10 mM DMSO stocks in wash buffer. The plates were incubated for one hour at room temperature and subsequently washed five times with wash buffer using Titertek automatic plate washer to remove any unbound peptide. The biotinylated peptide bound to the cells was then allowed to react for thirty minutes with 50 μl of 2000× dilution of the streptavidin-Eu^3+ reagent, diluted in the Wallac reagent diluent. Finally, after washing the unbound streptavidin-Eu^3+ reagent, 50 μl of Wallac Enhancement Solution per well was added to release the free Eu^3+ from its chelate form. Free Eu^3+ rapidly forms a highly fluorescent stable chelate with the components of the Enhancement solution. […]

[2] = tested on: chicken aortic rings; assay: Aortic ring assay (chicken aortic rings in Matrigel, microvessel formation); format: cell-based; settings: peptide 125 to 1000 μM, 2-3 days
From the text: The aortic ring assay is a widely used in vitro assay for angiogenesis. Typically, rat aortas are sliced crosswise and placed in Matrigel. After three to five days, microvessel sprouting can be roughly quantified by manual counting or by using image analysis. The aortic ring assay is low-cost, easy to use, and offers many assays from a single animal. A relatively new variant uses embryonic chick aortic arches (see Muthukkaruppan et al., Proceedings of the American Association for Cancer Research Annual Meeting, 2000).
In this experiment, chicken aortic rings are embedded in Matrigel (BD BioCoat™ Matrigel™ or other equivalent products) in optimized MCDB-131 media (Sigma product number: M8537, or equivalent products from other vendors). From endothelial cells (EC) in the aortic intima, a complex network of branching and anastomosing microvessels develop interspersed with fibroblast as individual cells. In this assay the ability of the identified EC-binding peptides is tested for their abilities to inhibit EC branching and microvessel formation.
Chicken aortic branches were dissected and cleaned from 15 day old chicken embryos, and were then rinsed well in cold PBS+Penicillin/Streptomycin (P/S) buffers. The arteries were then cut into about 1 mm rings using sterile razor blade, and the resulting rings were mounted in 10-20 μl of Matrigel (in a 48-well plate). Subsequently, 300 μl of MCDB-131 basal media+P/S containing the indicated amount of test peptide were added. The cultured rings were incubated at 37° C., with 5% CO2 for 2-3 days, and the extent of microvessel formation were evaluated as the end of the experiment.

[3] = tested on: angiogenesis in Matrigel plug; assay: Mouse Matrigel plug assay (FGF-induced angiogenesis, hemoglobin content); format: in vivo; settings: for inhibition of angiogenesis in the Matrigel plug assay (in words) / inhibition of angiogenesis: mouse Matrigel plug with FGF; for inhibition of angiogenesis: peptide in the plug versus FGF-only control plug, hemoglobin levels
Description: This assay takes advantage of the fact that Matrigel is liquid at 4° C. but becomes gel when warmed to 37° C. Thus when injected subcutaneously into the ventral region of a mouse, Matrigel solidifies and forms a so-called “Matrigel plug”. When angiogenic factors, such as FGF, are mixed with the Matrigel and injected, endothelial cells migrate into the gel plug and form functional vessels. The level of angiogenesis can then be assessed by measuring hemoglobin levels in the plugs, which are directly proportional to the extent of angiogenesis. Typically, two plugs are assayed in each mouse: one plug (control plug) contains FGF only and is used as control for angiogenesis, while the test plug contains FGF and an indicated amount of test peptide(s). In single-point assays, peptide concentration in the plug is 1 mM.
C57BL/6 female mice, 6-8 wks.
Basis FGF (bFGF) stock was prepared at 25 μg/ml in saline buffer +5% mouse serum albumin. The bFGF stock was added to Matrigel at 200 ng/ml. The mixture was left on ice for at least 3 hours before further use. For each mouse, 1 ml of such mixture was prepared, so that 0.5 ml of the mixture can be injected into each mouse to achieve about 100 ng/one side injection. If a test peptide were also to be added, for each mouse, 50 μl of 10 mM peptide (or 5 mM cRGD, positive control) was slowly added to Matrigel, swirling while adding. Per 5 mice, add 300 μl of peptide per 3 mls of Matrigel.
Syringes for injection were left on ice before injection. One syringe is used for each side of the group of 5 mice. About 1 ml of the mixture can be loaded at a time and injected into 2 mice using the Becton Dickinson 1 ml syringe for subcutaneous injection (26 gauge, ⅝ths, cat# 309597). Mice were anesthetized with isofluorane in a chamber, and were pulled out just as their breathing became slow. Injection were performed subcutaneously at inner thighs of the mice.
To determined the degree of angiogenesis, Matrigel plugs were dissected out, and placed in pre-weighed Falcon 5 ml snap-cap round bottomed tubes (polypropylene, Falcon cat# 352063). One ml of PBS was then added. The tubes were weighed with Matrigel plugs inside. The samples were kept at 4° C. until ready for hemoglobin assay.
Sonicate samples before measuring the hemoglobin content using the Plasma hemoglobin kit from Sigma.

[4] = tested on: human microvascular endothelial cells (HMVEC); settings: Cell Type HMVEC; for Binding Affinity: equals Bmax/Kd; for Kd: fixed cells, biotinylated peptide 1 nM to 10 μM
From the text: as §1, §2, §3, §4, §5, §6, §7, §8

In the case of “Biotin-CDCRGDCFC-OH (cysteine pairing not given here) [reference compound]”, the “Bmax (counts/cell)” value ([1]; Cell Type AoSMC) is reported as 7.18 counts/cell, the “Binding Affinity” value ([1]; Cell Type AoSMC, equals Bmax/Kd) is reported as 28.725 and the Kd ([1]; Cell Type AoSMC, fixed cells, biotinylated peptide 1 nM to 10 μM) is reported as 0.25 µM.

“Biotin-GCDSHKRLKCG (cysteine pairing not given here) [9-G5]” was tested, and the “inhibition of angiogenesis (microvessel formation) in the aortic ring assay (in words)” value (“inhibition … in the aortic ring assay (in words)” below) [2] was “tested positive”, the “inhibition of angiogenesis in the Matrigel plug assay (in words)” value [3] was “tested positive” and the “Bmax (counts/cell)” value [4] was 10.1138 counts/cell. The “Binding Affinity” value [4] was 19.195, the Kd [4] was 0.527 µM and the “Binding Affinity” value [1] was −2.127. The “Bmax (counts/cell)” value [1] was 2.937 counts/cell and the “binding to AoSMC (in words)” value [1] was “do not bind”.

For “Biotin-GCHSSTWRACG (cysteine pairing not given here) [2-C10]”, the “inhibition … in the aortic ring assay (in words)” value [2] was “tested positive”, the “inhibition of angiogenesis in the Matrigel plug assay (in words)” value [3] was “tested positive” and the “Bmax (counts/cell)” value [4] was 8.79 counts/cell. For the same substance, the “Binding Affinity” value [4] was 3.83, the Kd [4] was 2.29 µM and the “Binding Affinity” value [1] was −5.709. The “Bmax (counts/cell)” value [1] was 0.9694 counts/cell and the “binding to AoSMC (in words)” value [1] was “do not bind”.

For “Biotin-GCMNQHSSACG (cysteine pairing not given here) [3-B5]”, the “Bmax (counts/cell)” value [4] was 3.817 counts/cell, the “Binding Affinity” value [4] was 394.75 and the Kd [4] was 0.0097 µM. For the same substance, the “Binding Affinity” value [1] was 85.24, the “Bmax (counts/cell)” value [1] was 8.354 counts/cell and the Kd [1] was 0.098 µM.

In the case of “Biotin-GCPTPHSGTCG (cysteine pairing not given here) [2-G9]”, the “inhibition … in the aortic ring assay (in words)” value [2] is reported as “tested positive”, the “inhibition of angiogenesis in the Matrigel plug assay (in words)” value [3] is reported as “tested positive” and the inhibition of angiogenesis [3] is reported as 57%. For the same substance, the “Bmax (counts/cell)” value [4] was 5.15 counts/cell, the “Binding Affinity” value [4] was 166.12 and the Kd [4] was 0.031 µM. The “Binding Affinity” value [1] was 57.639, the “Bmax (counts/cell)” value [1] was 8.519 counts/cell and the Kd [1] was 0.148 µM.

“Biotin-GCTQMRTAYCG (cysteine pairing not given here) [7-D5]” was tested, and the “Bmax (counts/cell)” value [4] was 11.0211 counts/cell, the “Binding Affinity” value [4] was 2.3116 and the Kd [4] was 4.77 µM. For the same substance, the “Binding Affinity” value [1] was 28.211, the “Bmax (counts/cell)” value [1] was 10.8332 counts/cell and the Kd [1] was 0.384 µM. For the same substance, the “binding to smooth muscle cells compared with endothelial cells” value [1] was “binds better to smooth muscle cells than to endothelial cells”.

HTKQIPRHIYSA [1-H5] was tested, and the “inhibition … in the aortic ring assay (in words)” value [2] was “tested positive”, the “inhibition of angiogenesis in the Matrigel plug assay (in words)” value [3] was “tested positive” and the inhibition of angiogenesis [3] was 44%. For the same substance, the “dose dependence of inhibition of angiogenesis” value ([3]; mouse Matrigel plug, three concentrations, n no less than 9) was “linearly proportional to the concentration”.

cRGD [reference compound] showed an inhibition of angiogenesis [3] of 36%.
